No end group written: not given here.

T1 sequence (P51784 44-963 limits assumed): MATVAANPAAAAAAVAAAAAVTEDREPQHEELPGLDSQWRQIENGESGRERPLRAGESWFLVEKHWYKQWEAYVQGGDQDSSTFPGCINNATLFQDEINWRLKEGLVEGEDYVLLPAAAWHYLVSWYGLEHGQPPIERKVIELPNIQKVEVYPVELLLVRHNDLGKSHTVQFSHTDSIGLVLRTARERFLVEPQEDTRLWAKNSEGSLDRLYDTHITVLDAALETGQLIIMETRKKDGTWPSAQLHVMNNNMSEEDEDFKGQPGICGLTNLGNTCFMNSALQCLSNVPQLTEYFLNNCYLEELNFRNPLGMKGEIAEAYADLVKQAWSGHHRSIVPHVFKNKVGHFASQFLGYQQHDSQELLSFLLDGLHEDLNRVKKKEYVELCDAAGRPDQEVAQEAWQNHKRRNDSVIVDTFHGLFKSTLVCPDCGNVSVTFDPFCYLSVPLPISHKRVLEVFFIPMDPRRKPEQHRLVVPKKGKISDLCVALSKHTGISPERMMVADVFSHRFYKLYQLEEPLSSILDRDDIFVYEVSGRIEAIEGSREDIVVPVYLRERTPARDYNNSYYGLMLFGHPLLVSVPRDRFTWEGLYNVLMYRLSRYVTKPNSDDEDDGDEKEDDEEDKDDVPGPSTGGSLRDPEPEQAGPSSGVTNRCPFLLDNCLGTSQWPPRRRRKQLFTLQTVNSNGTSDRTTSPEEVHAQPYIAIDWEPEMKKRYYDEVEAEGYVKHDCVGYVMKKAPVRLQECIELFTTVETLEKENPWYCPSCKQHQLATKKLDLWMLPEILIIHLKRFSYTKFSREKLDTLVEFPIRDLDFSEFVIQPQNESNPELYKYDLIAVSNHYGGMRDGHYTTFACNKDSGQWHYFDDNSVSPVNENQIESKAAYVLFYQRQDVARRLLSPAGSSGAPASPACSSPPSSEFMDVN

The subject of one experiment is USP11_DU (USP11 N-terminal DUSP–UBL domains). In words: Next-generation phage display enrichment (two-proportion Z test, round 3 of panning). Type of experiment: binding, human. To be noted: enrichment on USP11_DU vs unrelated His-tagged control protein (flagellin fragment), after three rounds of panning, gpVIII phage-displayed nonapeptide. An excerpt: An NGPD approach was applied to the identification of USP11 ligands as schematically depicted in Fig. 1B. A randomized linear peptide library fused to the gpVIII protein was used to isolate peptides that interact with the USP11 N-terminal DU domains (DUSP and UBL domains in tandem; USP11_DU; Fig. 1A). After three biopanning rounds, phage ssDNA was extracted and purified, and peptide sequences were amplified and deep-sequenced. […] A graphical representation of the residue frequency within the motifs as computed by the Multiple EM for Motif Elicitation (MEME) algorithm ([33]) is shown in Fig. 1C. The thermodynamic binding parameters of synthetic peptides representative of both motifs, including the N-terminal phage protein sequence (AEGEF), AEGEFYKLKIRTPQ (referred to as FYLIR peptide) and AEGEFLELLKASRW (referred to as LXLL peptide), were determined by isothermal titration calorimetry (ITC). Peptides harboring either motif bound USP11_DU with dissociation constants of about 10 μM (8.86 ± 1.13 μM for AEGEFYKLKIRTPQ and 6.92 ± 2.25 μM for AEGEFLELLKASRW; Fig. 1D).
The peptide phage display library used for biopanning experiments (kindly provided by Professor Franco Felici, University of Molise, Italy; designated PC89VIII) is based on the PC89 phagemid vector ([50]) with a nonapeptide inserted at the N terminus of the phage major coat protein pVIII and a reported diversity of ∼10^7. The library was transformed into Escherichia coli TG1 supE thi-1 Δ(lac-proAB) Δ(mcrB-hsdSM)5(rK-mK) [F′traD36 proAB lacIqZΔM15], which was the strain used for all manipulations and phage rescue. Libraries were grown to mid-log phase (OD600 ∼0.6), superinfected with M13KO7 helper phage (Pharmacia LKB), and incubated overnight at 30 °C (250 rpm) to produce phage particles. Phage was harvested, and PEG was precipitated only for the first panning round. For all subsequent selection rounds (three in total), supernatant phage was used directly. Biopanning was carried out once, as described previously ([51]), and proteins were immobilized on cobalt beads (Dynabeads) (solution phase panning). A total of 100 μg of USP11_DU was immobilized for each round. In parallel, the phage isolated at each round against USP11_DU was also bound against an unrelated His-tagged control protein under the same conditions. This control protein was a fragment of flagellin, a virulence factor from E. coli O157:H7, amino acid residues 164–495, and the protein was used as it is unrelated to the target proteins and carried a C-terminal His tag. Bound phage were washed 10–20 times with PBS (10 mM phosphate buffer, pH 7.2–7.4, with 150 mM NaCl) plus 0.1% (v/v) Tween (PBST) and then PBS. Bound phage were eluted from the beads with 100 mM triethylamine and neutralized in 1 M Tris, pH 7.4. Half of the eluted phage was used for infection of TG1 cells, which were plated and used to make glycerol stocks.
The ssDNA of eluted phage for round 3 of selection against the USP11_DU target and the control protein was extracted and purified using the QIAprep Spin M13 kit. Subsequently, phage ssDNA was precipitated with ethanol and stored as a dry pellet to be used as a PCR template. For the amplification of the unknown peptide sequences, a two-step PCR strategy was followed, as described previously ([32]). The strategy produced an amplicon of ∼330 bp, and each sample contained a unique barcoded sequence. Each sample's DNA concentration was determined by the Agilent 2100 Bioanalyzer using the DNA 1000 kit. Based on the concentration readings for the peak of interest, samples were pooled in equal amounts, purified by the Agencourt AMPure XP kit, and run on a 2% (w/v) agarose gel. The band of ∼330 bp was excised from the gel and purified using the NucleoSpin Gel and PCR Clean-up kit. Finally, the concentration and size of the pooled DNA were measured on a Bioanalyzer. NGPD was carried out once for each round of panning. […]
Consider CKLKIRTPQ, for which the Z score is 5.6.

HKLKIRTPQ: the Z score was determined as 5.5.

In the case of LALIKRQPL, the Z score turned out to be 18.1.

The substance LALLMRQRP had a Z score of 19.0.

LAMLTRGRP showed a Z score of 3.0.

LELARRSPV showed a Z score of 4.1.

Consider LELLEASRW, for which the Z score was found to be 5.0.

LELLKALRW gave a Z score of 3.0.

On to LELLKAPRW, for which the Z score is listed as 3.6.

Turning to LELLKASRR, the Z score is 4.8.

LELLKASRW displayed a Z score of 108.7.

LELLKVSRW registered a Z score of 3.0.

Take LELLRASRW: the Z score was 4.6.

As for LELPKASRW, the Z score is 4.5.

As to LELVCRSPV, the Z score is listed as 2.8.

In the case of LELVHRSPV, the Z score was found to be 4.1.

In the case of LELVRCSPV, the Z score worked out at 3.2.

LELVRHSPV: the Z score is listed as 3.0.

The substance LELVRRSPA showed a Z score of 3.7.

In turn, LELVRRSPV returned a Z score of 89.0.

As for LELVRRSSV, the Z score is reported as 3.0.

LEPVRRSPV came in with a Z score of 4.1.

In turn, LESLKASRW came in with a Z score of 4.9.

For LGLLKASRW, the Z score came to 4.4.

Consider LQLLALSRA, for which the Z score is recorded as 3.6.

On to LQLLALSRT, for which the Z score is given as 70.9.

The substance LQLLAPSRT returned a Z score of 3.0.

LQLPALSRT gave a Z score of 4.1.

As to LRLLALSRT, the Z score worked out at 4.4.

In turn, NKLKIRTPQ showed a Z score of 2.8.

Consider PELLKASRW, for which the Z score came out at 3.6.

On to PQLLALSRT, for which the Z score was found to be 3.9.

YELKIRTPQ: the Z score is 4.6.

In turn, YKLEIRTPQ registered a Z score of 5.6.

With YKLKIQTPQ, the Z score was found to be 4.0.

In turn, YKLKIRAPQ yielded a Z score of 7.9.

Turning to YKLKIRIPQ, the Z score is on record as 4.4.

For YKLKIRTLQ, the Z score is on record as 3.7.

Consider YKLKIRTPL, for which the Z score was found to be 3.2.

YKLKIRTPQ: the Z score is recorded as 168.4.

Substance YKLKIRTPR came in with a Z score of 7.1.

Take YKLKIRTSQ: the Z score is on record as 3.6.

The substance YKLKTRTPQ returned a Z score of 4.5.

With YKLKVRTPQ, the Z score turned out to be 5.7.

Consider YKLRIRTPQ, for which the Z score was determined as 5.8.

YKPKIRTPQ: the Z score is given as 6.6.

Regarding YRLKIRTPQ, the Z score was 5.5.

Another experiment addresses T1, full-length USP11 (FL-USP11) (Homo sapiens, UniProt P51784).
T1 construct: FYLIR peptide (AEGEFYKLKIRTPR) titrated into full-length USP11 (FL-USP11); His tag (inferred from nickel-chelate purification and the pColdI vector); made in house; host or cells: E. coli BL21-CodonPlus (pColdI), grown 72 h at 10 °C
The experiment is described as follows: Isothermal titration calorimetry, full-length USP11. To be noted: ITC, 30 μM protein in PBS, 25 °C, one site binding model; n=1; read-out: dissociation constant. The procedure: (§1) ITC data were measured on a MicroCal VP-ITC or a PEAQ ITC instrument to obtain the binding parameters for peptide ligand–USP11_DU interactions. The sample cell contained 30 μM protein in PBS buffer. Each peptide (at a concentration of 300 or 600 μM) was titrated into the sample cell in 8-μl (VP-ITC) or 2-μl (PEAK ITC) injections at a temperature of 25 °C. Spacing was typically 180 s, and a stirring speed of 300 rpm was used. The data were analyzed using NITPIC ([52]), SEDPHAT ([53]), and GUSSI software. ITC experiments were repeated at least twice independently apart from the USP15_DU, USP4_DU, and the FL-USP11 titrations with FYLIR peptide, which were conducted once.
In general terms: ITC needs no label: the signal is the heat of the interaction.
With AEGEFYKLKIRTPR-NH2 [AEGEFYKLKIRTPR], the Kd was ~12.5 µM.

The test system of the next experiment is USP11_DU^L208F/S242R. In words: Isothermal titration calorimetry, USP11_DU double mutant. In kind it is binding, human. Conditions: 30 μM protein in PBS, peptide 300 or 600 μM, 25 °C, pocket-deficient double mutant, repeated at least twice. The procedure: as §1
Consider “AEGEFLRLLNFTKP [peptide harboring motif 2 (LXLL)]”, for which the “binding by ITC” value was “abolished”.

The subject of the next experiment is Panc1 cells. The experiment is described as follows: Cell viability (Presto Blue assay), Panc1. To be noted: Panc1, up to 10 μM, 24 h, Presto Blue, n=4 biological repeats (Fig. S6). Type of experiment: cell-based, human. How it is done:
Cells were plated in 96-well plates (2.5 × 10^4 cells/well) and treated with GET-FYLIR (0–50 μM) for 24 h. Cells were also treated with GET-Scrambled as a control. After treatment, cells were washed with PBS and then incubated for 15 min at 37 °C with a 100-μl Presto Blue solution (10% Presto Blue, Invitrogen in Hanks' balanced salt solution, Sigma). Change in the fluorescence was measured using a plate reader with the excitation/emission wavelengths set at 560/590 nm (Infinite® 200 PRO, TECAN), with untreated cells used as a control. All data sets were combined for the statistical analysis. A Sidak's multiple comparisons test was applied. N refers to the number of biological replicates.
As to APKFEIRRGTYKLE [GET-Scrambled], the cell viability result was “no significant effect”.

The subject of a further experiment is Panc1 cells. The experiment is described as follows: Cell uptake (flow cytometry), Panc1. In kind it is cell-based, human. Conditions: 1 μM and 5 μM, 1 or 24 h, flow cytometry. How it is done: Cells treated with GET-FYLIR or GET-Scrambled were analyzed on an Astrios cell sorter using a 488-nm […] laser (40,000 cells; gated on live cells by forward/side scatter). Gmean was used as the average cell intensity. All data sets were combined for the statistical analysis. A Sidak's multiple comparisons test was applied. N refers to the number of biological replicates.
In general terms: A flow cytometer gives signals particle by particle.
For APKFEIRRGTYKLE [GET-Scrambled], the “uptake profile, NIH3T3 versus Panc1” value is “no difference in the uptake profile between NIH3T3 and Panc1 cells”.

The same experiment, now with this note: NIH3T3 and Panc1, 1 and 5 μM, flow cytometry.
For APKFEIRRGTYKLE [GET-Scrambled], the cellular delivery entry is listed as “efficiently delivered”.

For the origin of these results see paper PMC6333900, “Discovery of peptide ligands targeting a specific ubiquitin-like domain–binding site in the deubiquitinase USP11” (The Journal of Biological Chemistry, 2018).
